One assay deals with MOLM-13. As to the kind of experiment: Cell growth inhibition, MOLM-13 leukemia cells (CellTiter-Glo). Format: cell-based. The following applies: Homo sapiens, MOLM-13, 96 h; 4 days; read-out: IC50 (nM) MOLM-13 Cell Line (CellTiter-Glo assay). A digest of the protocol:
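MOLM-13 leukemia cells treated with compounds; viability read by CellTiter-Glo luminescence after 10-20 min reagent incubation at room temperature. IC50 derived from luminescent signal.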
For orientation: Cellular ATP, detected with luciferase, serves as a proxy for viable cell number.

For a further assay, the target named is T1, recombinant BRD4 BD1 (Homo sapiens, UniProt O60885).
T1 construct: for recombinant BRD4 BD1 and BRD4 BD2 proteins
The assay can be described thus: Competitive fluorescence-polarization (FP) binding assay, BRD4 BD1. Further: probe 1.5 nM. The conditions noted are these: competitive FP assay; protein 10 nM, probe […]; read-out: IC50 (nM) BRD4 BD1. A digest of the protocol: (§1)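 FP competition with FAM-labelled probe (ZBA248 or BRD-1F) against preincubated protein/probe complex; BD1 at 10 nM and BD2 at 6 nM final, in 100 mM potassium phosphate pH 6.5, 0.01% Triton X-100. 30 min, room temperature. IC50 by nonlinear regression; Ki also derived, using probe Kd from protein saturation.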

In a further assay the target is T2, recombinant BRD4 BD2 (Homo sapiens, UniProt O60885).
T2 construct: for recombinant BRD4 BD1 and BRD4 BD2 proteins
The assay can be described thus: Competitive fluorescence-polarization (FP) binding assay, BRD4 BD2. Further: probe 1.5 nM. The conditions noted are these: competitive FP assay; protein 6 nM, probe […]; read-out: IC50 (nM) BRD4 BD2. A digest of the protocol:
as §1

In another assay the test system is MDA-MB-436. As to the kind of experiment: Cell growth inhibition, MDA-MB-436 breast cancer cells (WST-8). Format: cell-based. The conditions noted are these: Homo sapiens, MDA-MB-436, 96 h; 4 days; read-out: IC50 (nM) MDA-MB-436 Cell Line (WST assay). The essentials: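 IC50 was computed from WST-8-based cell counting in MDA-MB-436 cells, with absorbance read at 450 nm.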

These results are taken from patent US9580430B2, “9H-pyrimido[4,5-B]indoles and related analogs as BET bromodomain inhibitors” (THE REGENTS OF THE UNIVERSITY OF MICHIGAN, priority 2014, dated 2017).

SMILES strings stand for the structures.

As for `COc1cc2c(cc1-c1c(C)noc1C)[nH]c1nc(C)nc(Nc3nn(C)c4c3CCCC4)c12` [Cpd. No. 124, 7-(3,5-Dimethylisoxazol-4-yl)-6-methoxy-2-methyl-N-(1-methyl-4,5,6,7-tetrahydro-1H-indazol-3-yl)-9H-pyrimido[4,5-b]indol-4-amine], the half-inhibitory concentration (IC50) (commonly the concentration that inhibits the measured activity by half) is 41.9 nM in the assay with MOLM-13, 5 nM on recombinant BRD4 BD1, 29.5 nM on recombinant BRD4 BD2 and 58.3 nM with MDA-MB-436.

With `COc1cc2c(cc1-c1c(C)noc1C)[nH]c1nc(C)nc(Nc3c4c(nn3C)CCCC4)c12` [Cpd. No. 125, 7-(3,5-Dimethylisoxazol-4-yl)-6-methoxy-2-methyl-N-(2-methyl-4,5,6,7-tetrahydro-2H-indazol-3-yl)-9H-pyrimido[4,5-b]indol-4-amine], the 50% inhibitory concentration (IC50) worked out at 11.3 nM in the assay on MOLM-13, 4.4 nM at recombinant BRD4 BD1, 2 nM at recombinant BRD4 BD2 and 17.5 nM with MDA-MB-436.

On to `COc1cc2c(cc1-c1c(C)noc1C)[nH]c1nc(C)nc(Nc3cc(C(C)(C)C)n[nH]3)c12` [Cpd. No. 126, N-(3-(tert-Butyl)-1H-pyrazol-5-yl)-7-(3,5-dimethylisoxazol-4-yl)-6-methoxy-2-methyl-9H-pyrimido[4,5-b]indol-4-amine], for which the IC50 in the assay on MOLM-13 came to 65.3 nM; on recombinant BRD4 BD1, 11 nM; at recombinant BRD4 BD2, 32.8 nM; in the assay with MDA-MB-436, 140 nM.

Consider `COc1cc2c(cc1-c1c(C)noc1C)[nH]c1nc(C)nc(Nc3nn(C)c4c(F)cccc34)c12` [Cpd. No. 129, 7-(3,5-Dimethylisoxazol-4-yl)-N-(7-fluoro-1-methyl-1H-indazol-3-yl)-6-methoxy-2-methyl-9H-pyrimido[4,5-b]indol-4-amine], for which the IC50 in the assay on MOLM-13 is 144 nM; at recombinant BRD4 BD1, 105 nM; at recombinant BRD4 BD2, 202 nM; in the assay on MDA-MB-436, 201 nM.

In the case of `COc1cc2c(cc1-c1c(C)noc1C)[nH]c1nc(C)nc(Nc3nn(CCO)c4ccccc34)c12` [Cpd. No. 131, 2-(3-((7-(3,5-Dimethylisoxazol-4-yl)-6-methoxy-2-methyl-9H-pyrimido[4,5-b]indol-4-yl)amino)-1H-indazol-1-yl)ethanol], the IC50 in the assay on MOLM-13 was determined as 32.7 nM; at recombinant BRD4 BD1 it was 9.6 nM; on recombinant BRD4 BD2, 51.4 nM; in the assay with MDA-MB-436, 97.6 nM.

Take `COc1cc2c(cc1-c1c(C)noc1C)[nH]c1nc(C)nc(Nc3nn(C)c4cccc(F)c34)c12` [Cpd. No. 132, 7-(3,5-Dimethylisoxazol-4-yl)-N-(4-fluoro-1-methyl-1H-indazol-3-yl)-6-methoxy-2-methyl-9H-pyrimido[4,5-b]indol-4-amine]: the IC50 was found to be 97.5 nM in the assay on MOLM-13, 68.6 nM at recombinant BRD4 BD1, 718 nM on recombinant BRD4 BD2 and 224 nM in the assay on MDA-MB-436.

With `COc1cc2c(cc1-c1c(C)noc1C)[nH]c1nc(C)nc(Nc3cc(C(C)(C)C)ns3)c12` [Cpd. No. 133, 3-(tert-Butyl)-N-(7-(3,5-dimethylisoxazol-4-yl)-6-methoxy-2-methyl-9H-pyrimido[4,5-b]indol-4-yl)isothiazol-5-amine], the IC50 in the assay with MOLM-13 was 433 nM; on recombinant BRD4 BD1, more than 1000 nM; at recombinant BRD4 BD2, more than 1000 nM; in the assay with MDA-MB-436, 47900 nM.

On to `COc1cc2c(cc1-c1c(C)noc1C)[nH]c1nc(C)nc(Nc3cnn4c3CCC4)c12` [Cpd. No. 134, N-(5,6-Dihydro-4H-pyrrolo[1,2-b]pyrazol-3-yl)-7-(3,5-dimethylisoxazol-4-yl)-6-methoxy-2-methyl-9H-pyrimido[4,5-b]indol-4-amine], for which the concentration for half-maximal inhibition (IC50) is 32 nM with MOLM-13, 40.2 nM on recombinant BRD4 BD1, 30.5 nM on recombinant BRD4 BD2 and 128 nM in the assay with MDA-MB-436.

For `COc1cc2c(cc1-c1c(C)noc1C)[nH]c1nc(C)nc(Nc3c(C)cnn3C3CCCC3)c12` [Cpd. No. 135, N-(1-Cyclopentyl-4-methyl-1H-pyrazol-5-yl)-7-(3,5-dimethylisoxazol-4-yl)-6-methoxy-2-methyl-9H-pyrimido[4,5-b]indol-4-amine], the IC50 in the assay with MOLM-13 was determined as 30.2 nM; on recombinant BRD4 BD1, 5.6 nM; at recombinant BRD4 BD2, 1.3 nM; in the assay with MDA-MB-436 it was 57.6 nM.
